From PMC11414077, “Novel thiazole-based cyanoacrylamide derivatives: DNA cleavage, DNA/BSA binding properties and their anticancer behaviour against colon and breast cancer cells” (BMC Chemistry, 2024)

Assays:
[1] = test system: CT-DNA; test: CT-DNA UV-Visible absorption spectrophotometric titration; format: binding, calf; details: compound 25 μM, CT-DNA 0–60 μM; peak 423 nm (3b), 359 nm (3c)
Experimental: CT-DNA stock solution was prepared by dissolving CT-DNA in Tris/NaCl buffer (pH 7.1). Then, it was stored at 4°C and was manipulated within 4 days of preparation. The concentration was estimated by applying the equation C=A260nm/ε×b where C is the concentration of DNA solution, A is the absorbance at wavelength 260 nm, b is the path length and ε is the molar extinction coefficient of DNA that equals 6600 M^−1 cm^−1. The purity also was calculated using the absorbance ratio at wavelength 260 and 280 respectively, which was 1.8 indicating free DNA from protein contamination. Stock solutions of compounds 3b and 3c were prepared by dissolving in DMSO.
The interaction between the selected compounds (3b and 3c) and CT-DNA was assessed through the spectrophotometric titration method. In brief, a fixed concentration of compounds (25 μM) was mixed with an accumulative addition of CT-DNA (0–60 μM) at room temperature with a constant DMSO percentage of 5%. After 5 min from each addition, the UV–Vis absorption spectrum (250–650 nm) was recorded. The hyper/hypochromic percentage change at the characteristic peak of 3b and 3c was assessed using the formula: H%=Afree-Abound/Abound×100 . […] Standard Gibbs free energy (ΔG°) was calculated using the equation ΔG° = − RTlnKb (where T is the temperature, 298 K; R is the universal gas constant, 8.314 J K^−1 mol^−1).

[2] = test system: CT-DNA-EtBr; test: Ethidium bromide quenching (displacement) assay; format: binding, calf; details: for kq / KSV: CT-DNA-EtBr; for kq: τ0 10^−8 s; for reduction in fluorescence intensity: EtBr 20 µM, CT-DNA 100 µM, 3b 0–160 µM, 3c 0–80 µM; for KSV: Stern–Volmer, room temperature
Experimental: EtBr is a conventional intercalator whose fluorescence intensity intensifies in response to CT-DNA interaction. Solution of CT-DNA-EtBr with final concentrations of EtBr (20 µM) and CT-DNA (100 µM) in Tris–HCl buffer solution (pH = 7.1) was prepared, then compounds were solubilized in DMSO, added to the prepared solution to attain a range of concentration (0–160 µM) and (0–80 µM) for 3b and 3c, respectively. Then, the mixtures were incubated 3 min after each addition and the emission spectra (540–710 nm) were recorded using an excitation wavelength of 520 nm.
The interaction mode between compound and CT-DNA can be discriminated through fluorescence spectroscopy with the EtBr–CT-DNA system. EtBr is a classic indicator of intercalation where an intense fluorescence signal is emitted from the EtBr-CT-DNA system through intercalation of EtBr between adjacent DNA base pairs with no obvious signal for unaccompanied EtBr. […] The Stern–Volmer equation was used for the study of the effect of quenchers on the CT-DNA-EtBr system. F0/F= 1+KsvQ= 1+kqτ0[Q] where F0 and F are fluorescence intensities in the absence and presence of the compound used for quenching, respectively; KSV is a linear Stern–Volmer quenching constant; [Q] is the concentration of the quenching compound and τ0 is the fluorescence lifetime of the fluorophore (10^−8 s) in absence of the compound responsible for quenching. KSV for 3b and 3c is computed from the linear regression plot of F0/F against [Q]. Also, the binding constant (Kb) and the number of binding sites (n) were determined by the Scatchard method.
log((F0-F)/F)=logKb+nlog[Q]
Kb has been assigned as the intercept and n as the slope in the linear plotting of log((F0–F)/F) versus log[Q]. The detailed results for 3b and 3c were computed and depicted in Table 1.

[3] = molecular target: T1, BSA (Bos taurus, UniProt P02769); test: BSA UV-Visible absorption spectrophotometric titration; format: binding, bovine; details: at 277 nm, BSA 15 μM, compound 0–40 μM
T1 construct: purchased BioBasic Inc. (Canada)
T1 sequence (P02769 25-607): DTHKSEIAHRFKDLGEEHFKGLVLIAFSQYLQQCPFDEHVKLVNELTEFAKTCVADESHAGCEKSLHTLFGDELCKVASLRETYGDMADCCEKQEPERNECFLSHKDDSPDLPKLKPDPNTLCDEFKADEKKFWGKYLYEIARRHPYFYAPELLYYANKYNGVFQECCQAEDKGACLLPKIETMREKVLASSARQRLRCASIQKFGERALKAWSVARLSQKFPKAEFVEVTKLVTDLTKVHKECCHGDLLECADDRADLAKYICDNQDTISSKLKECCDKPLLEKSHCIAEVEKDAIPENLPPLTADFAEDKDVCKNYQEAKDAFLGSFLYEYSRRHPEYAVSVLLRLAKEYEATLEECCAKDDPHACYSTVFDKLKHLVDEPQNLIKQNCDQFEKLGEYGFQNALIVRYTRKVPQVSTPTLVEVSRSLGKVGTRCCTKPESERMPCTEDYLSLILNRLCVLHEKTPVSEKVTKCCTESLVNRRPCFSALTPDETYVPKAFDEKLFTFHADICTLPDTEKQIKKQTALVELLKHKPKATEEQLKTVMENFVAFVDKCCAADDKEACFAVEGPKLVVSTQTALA
Experimental: BSA was dissolved in Tris/NaCl buffer (pH 7.1) to prepare the BSA stock solution, which was then kept at 4°C and utilized within a week after preparation. The concentration was evaluated by applying the equation C=A280nm/ε×b where C is the concentration of protein solution, A is the absorbance at wavelength 280 nm, b is the path length and ε is molar extinction coefficient of protein that equals 44,300 M^−1 cm^−1.
The interaction was evaluated through dilution of BSA to 15 μM in Tris/NaCl (pH 7.1) during the spectrophotometric titration. After that, the compounds dissolved in DMSO were added with a range of increasing concentration (0–40 μM), where the final DMSO percentage is 5%. UV–Vis absorption spectrum measurement for each concentration was assessed by Shimadzu UV-3101 PC NIR spectrophotometer after 3 min of each addition. The Kb for compounds 3b and 3c was calculated using equation [54]: 1/Aobs-A0=1/Ac-A0+1/KbAc-A0[compound] where A0, Aobs and Ac are absorbance of solution in the absence, various concentrations, and saturation of the compound at the characteristic peak, respectively. Where Kb is estimated from the plot of 1/Aobs-A0 versus 1/[Drug] .

[4] = molecular target: T1, BSA; test: Tryptophan quenching assay with BSA; format: binding, bovine; details: for kq / n (binding site numbers) / Kb: BSA; for n (binding site numbers) / Kb: Scatchard method; for Kb / KSV: room temperature; for KSV: Stern–Volmer, BSA 15 µM, λex 289 nm
Experimental: BSA (15 µM) solution was prepared in Tris/HCl buffer solution (pH = 7.1) and mixed with serial concentrations of compounds 3b and 3c (0–40 µM), achieving 5% final concentration of DMSO. Following 3 min incubation after each addition, fluorescence quenching spectra were recorded from 300 to 450 nm using a spectrofluorometer with an excitation wavelength of 289 nm.
Fluorescence investigations could be used to conduct a specified analysis of whether synthetic molecules bind to biomolecules as BSA. It is widely perceived that predominantly tryptophan (Trp) is responsible for the inherited fluorescence among the other two amino acids [tyrosine (Tyr) and phenylalanine (Phe)] in the BSA [88]. The tryptophan emission spectrum is frequently altered because of protein conformational variation, subunit interactions, substrate binding, or denaturation. Reduced fluorescence emission intensity is observed for 3b and 3c, which may be due to disrupted BSA structure altering the tryptophan microenvironments. Moreover, the internalization of fluorophore residues into the protein's hydrophobic core is due to protein folding or related to the hydrophobic amino acid residues around Trp, such as Leu, Tyr, and phe. […] Also, a linear plot of F0/F against the concentration of 3b and 3c was used for computing the values of KSV (9.0 × 10^4 and 9.9 × 10^4 M^−1) and kq (9.0 × 10^12 and 9.9 × 10^12 M^−1 s^−1) for the titled compounds (3b and 3c, respectively). […] The negative values of ΔG also supported the UV–Vis results of free energy changes and implied the spontaneity of 3b/3c–BSA binding, where the interaction parameters were illustrated in Table 2.

[5] = test system: HCT116 cells; test: MTT cell viability assay, HCT116; format: cell-based; details: Homo sapiens, HCT-116; HCT116, absence of illumination (dark)
Experimental: (§1) The cytotoxicity of 3b and 3c against MDA-MB-231 and HCT116 cell lines, with and without illumination, was assessed using the MTT test. Two human cancer cell lines, including MDA-MB-231 and HCT116 cell lines, were purchased from the National Research Centre, Dokki, Cairo, Egypt. Briefly, 96-well plates were seeded with cells (5 × 10^3 cells/well) and left overnight. The compounds dissolved in DMSO were then applied to the cells following the serial dilution procedure in the range of 0–100 µM. The cells were then incubated for an additional 20 h. Subsequently, the cells were exposed to UV light for 20 min at a distance of 10 cm. To study the effects of the illumination, a control plate was created under the same circumstances but without illumination. The two plates were incubated for a further 20 h. After that, PBS was used to wash the cells and MTT solution (0.5 mg/ml) was added. To dissolve the generated formazan crystals, the solution was replaced with 100 µl of DMSO per well after 4 h of incubation. An ELISA reader operating at 492 nm was used to measure the absorbance after 15 min of plate shaking. By relating the absorbance of treated and negative control cells, the relative cell viability was calculated. GraphPad Prism software was used to calculate the half inhibitory concentration (IC50). Doxorubicin (0–100 μM) was utilized as a positive cytotoxicity control in the usual dark environment, while the vehicle (DMSO, 0.1%) was used as a negative control.

[6] = test system: MDA-MB-231 cells; test: MTT cell viability assay, MDA-MB-231; format: cell-based; details: Homo sapiens; MDA-MB-231, dark conditions
Experimental: as §1

Row | Structure (SMILES) | hypochromism [1] | kq [2] | reduction in fluorescence intensity [2] | KSV [2] | hyperchromicity [3] | kq [4] | n (binding site numbers) [4] | Kb [4] | KSV [4] | IC50 [5] | IC50 [6] | melting point
1 | N#CC(=Cc1cn(-c2ccccc2)nc1-c1cccs1)C(=O)Nc1nccs1 [Compound 3b, 2-Cyano-3-(1-phenyl-3-(thiophen-2-yl)-1H-pyrazol-4-yl)-N-(thiazol-2-yl)acrylamide] | ~ 14% | 2.9e+11 M⁻¹ s⁻¹ | ~ 33.3% | 2900 M⁻¹ | ~ 52.2% | 9e+12 M⁻¹ s⁻¹ | 1.3 | 30 M⁻¹ | 90000 M⁻¹ | 72 µM | 91 µM | 252 to 256 °C
2 | N#CC(=Cc1cn(-c2ccccc2)nc1-c1cccnc1)C(=O)Nc1nccs1 [Compound 3c, 2-Cyano-3-(1-phenyl-3-(pyridin-3-yl)-1H-pyrazol-4-yl)-N-(thiazol-2-yl)acrylamide] | ~ 40% | 5.6e+11 M⁻¹ s⁻¹ | ~ 30.7% | 5600 M⁻¹ | ~ 48.2% | 9.9e+12 M⁻¹ s⁻¹ | 1.3 | 34 M⁻¹ | 99000 M⁻¹ | 82 µM | 64 µM | 250 to 252 °C
3 | Cc1ccc(-c2nn(-c3ccccc3)cc2C=C(C#N)C(=O)Nc2nccs2)cc1 [Compound 3d, 2-Cyano-3-(1-phenyl-3-(p-tolyl)-1H-pyrazol-4-yl)-N-(thiazol-2-yl)acrylamide] | – | – | – | – | – | – | – | – | – | – | – | 255 to 257 °C
4 | N#CC(=Cc1cn(-c2ccccc2)nc1-c1ccc(Cl)cc1)C(=O)Nc1nccs1 [Compound 3f, 3-(3-(4-Chlorophenyl)-1-phenyl-1H-pyrazol-4-yl)-2-cyano-N-(thiazol-2-yl)acrylamide] | – | – | – | – | – | – | – | – | – | – | – | 270 to 272 °C
5 | COc1cccc2c1C(=O)c1c(O)c3c(c(O)c1C2=O)C[C@@](O)(C(=O)CO)C[C@@H]3O[C@H]1C[C@H](N)[C@H](O)[C@H](C)O1 [doxorubicin, reference compound] | – | – | – | – | – | – | – | – | – | 40 µM | 64.8 µM | –
